Data reported in a melting point compilation (Tetko et al.; mined from patent text by program, amines drawn as free bases though some values may be those of a salt).

Row | SMILES | melting point
1 | CCCCNc1ccc2nn(CCC)c(=O)n2n1 | 183 to 185 °C
2 | CC1=CC(c2ccccc2Cl)C(c2nnco2)=C(C)N1 (stereo not drawn) | 192 to 194 °C
3 | Cc1ccc(Cc2cnc(NCCN(Cc3ccccc3)c3ccccn3)[nH]c2=O)cn1 | 178 to 182 °C
4 | Nc1ccc(F)cc1C(=O)c1ccccc1 | 112 to 113 °C
5 | Cc1csc(-c2ccc(C3=NNC(=O)CC3)cc2)n1 | 266 to 267 °C
6 | CCCCCC(=O)NCc1ccco1 | 54 to 55 °C
7 | O=C(O)C1=CC(CF)(CF)Oc2ccc(C(F)(F)C(F)(F)C(F)(F)F)cc21 | 162 to 163 °C
8 | C[Si](C)(C)c1cc(Cl)sc1C(=O)NCCCl | 68 to 72 °C
9 | CCOC(=O)c1coc(=O)cc1S(C)(=O)=O | 95 to 97 °C
10 | CC(C)(C)CC(C)(C)NC(=O)CCON(Cc1ccccc1)Cc1ccccc1 | 96 to 98 °C
11 | S=c1[nH]ccn1CCCc1cccs1 | 94 to 96.5 °C
12 | NC(=S)C1CCCc2cc3c(nc21)CCC3 (stereo not drawn) | 118 °C
13 | O=C(CCn1c2ccccc2c2ccccc21)OCCn1c2ccccc2c2ccccc21 | 163 to 165 °C
14 | Cc1ccc(C2CCN(C(=O)Nc3ccc4cc(CN5CCCCC5)ccc4c3)CC2)cc1 | 227 to 228 °C
15 | Cc1cc(O)nc2c1c(C)nn2-c1ccccn1 | 254 to 255 °C
16 | C=S1C(=NC(F)(F)F)C(=NC(F)(F)F)N(c2ccccc2)C1C(C)=O (stereo not drawn) | 189 to 191 °C
17 | OC(CCCN1CCN(c2ncc(F)cn2)CC1)c1ccc(F)c2ccccc12 (stereo not drawn) | 129 to 131 °C
18 | COc1ccc(C=O)c(Br)c1O | 80 to 81.5 °C
19 | Cc1nc2cc(C)c(C)cc2c(=O)[nH]1 | 310 to 312 °C
20 | N#Cc1ccc2c(c1)CCC1CC(=O)NN=C21 (stereo not drawn) | 292 to 295 °C
21 | CCOC(=O)C1CCC2(C)C(=CC(O)C3C2CCC2(C)C(O)CCC32)C1 (stereo not drawn) | 170 to 171 °C
22 | CCCC[C@H](NC(=O)C(CS)C(F)(F)F)C(=O)O (stereo partly drawn) | 96 to 98 °C
23 | CSc1cnn(C(C)(C)C)c(=O)c1C | 115 to 116 °C
24 | CCOCc1nc2c(N)nc3c(c2n1NC(C)C)CCCC3 | 144 to 146 °C

Row | SMILES | melting point
25 | COC1CCc2c(Nc3ccc(C#N)cc3)ncnc21 (stereo not drawn) | 167 to 169 °C
26 | Cc1nc2c(N)nc3cc(OCCC4CCN(C(=O)C5CCCC5)CC4)ccc3c2n1CC(C)C | 236 to 238 °C
27 | COc1ccc2c(c1)C13CCN(C#N)C(C2)C1C(C)CC(=O)C3 (stereo not drawn) | 202 to 205 °C
28 | Cc1cc(C)n(-c2nnc3cc(Cl)ccc3n2)n1 | 174 °C
29 | Cn1ncnc1COc1nn2c(-c3cc(CF)on3)nnc2c2ccccc12 | 250 to 252 °C
30 | COc1ccc(-c2oc(CCCCCc3nnn[nH]3)nc2-c2ccc(Cl)cc2)cc1 | 160 °C
31 | CSc1nc(C)ccc1NC(=O)CCCCCBr | 98 to 99 °C
32 | CCC(C)C(NC(=O)C(C)CS)C(=O)O (stereo not drawn) | 164 °C
33 | Cc1snc(O)c1C(N)=O | 248 to 250 °C
34 | OC1CSC(Oc2cc(-c3ccc(F)nc3)cc(F)c2F)C(O)C1O (stereo not drawn) | 179 °C
35 | CC(SN1C(=O)CCC1=O)c1ccccc1 (stereo not drawn) | 121 to 125 °C
36 | CCCCNc1cc(CNc2ccccc2)cc(S(N)(=O)=O)c1Oc1ccccc1 | 142 to 143 °C
37 | COc1ccccc1OCCCOS(N)(=O)=O | 80 to 83 °C
38 | C=CCSc1nc(O)nn1CC | 74 to 76 °C
39 | CSc1nc(C)nc(N)n1 | 161 to 163 °C
40 | COC(=O)c1cc(=O)c2cc3[nH]c(=O)oc3cc2[nH]1 | 297 °C
41 | CC(C)(C)OC(=O)C(=[N+]=[N-])C(=O)C(C(=O)OC(C)(C)C)[C@H]1NC(=O)[C@@H]1Br (stereo partly drawn) | 136 to 138 °C
42 | CC(C)[C@H](NC(=O)CN1CCN(CC(=O)O)C1=O)C(=O)N1CCC[C@H]1C(=O)N[C@H](C(=O)C(F)(F)F)C(C)C | 177 to 178 °C
43 | COc1cc(F)c(C(O)CNCc2csc(NC(C)=O)n2)cc1OC (stereo not drawn) | 173 to 175 °C
44 | CC(C)CCCC(C)C1CC(=O)C2=C3C(F)CC4CC(OC(=O)c5ccccc5)CCC4(C)C3CCC21C (stereo not drawn) | 144 to 145 °C
45 | CNC(=O)C1(Nc2nc(Nc3cc4c(cc3OC)CCN(CCOC)CC4)ncc2Cl)CC1 | 211 to 215 °C
46 | CN1CC2CCCCC2C1c1noc(=O)[nH]1 (stereo not drawn) | 102 to 104 °C
47 | COc1nc(O)nn1C(C)C | 102 to 103 °C

Further lines, results first:

Row | melting point | SMILES
48 | 198 to 199 °C | O=C(O)c1cnc2ccn(Cc3ccccc3)n2c1=O
49 | 206 to 208 °C | N#CC(=Cc1cc2ccccc2c2ccccc12)c1ccncc1
50 | 192 to 196 °C | Cn1c(C(F)(F)F)cc(=O)n(-c2ccc3snc(C(C)(C)C(N)=O)c3c2)c1=O
51 | 123 to 125 °C | CS(=O)(=O)c1cc(C(F)(F)F)ccc1C(=O)CC(=O)C1CC1
52 | 145 °C | Cc1ccc(S(=O)(=O)N2[C@@H](CCc3ncnn3C)CC[C@H]2c2ccc(F)cc2)cc1 (racemic)
53 | 187 to 189 °C | CC(=O)SCC(Cc1ccccc1)C(=O)Nc1ccc(C(=O)O)cc1 (stereo not drawn)
54 | 189 to 190 °C | CC1(C)Oc2ccc(OC(F)(F)F)cc2[C@@H](NC(=O)c2ccccc2[N+](=O)[O-])[C@@H]1O
55 | 121 to 122 °C | COc1ccccc1Oc1cccc(CC(=O)O)c1OC
56 | 88 to 90 °C | CS(=O)(=O)c1ccc(-c2cnn(Cc3ccccc3)c(=S)c2-c2ccc(F)cc2)cc1
57 | 50 °C | CCSCCn1c(=N)sc2cc(C(F)(F)F)ccc21
58 | 181 to 186 °C | CC(=O)N1CCc2c(sc3nc4ccccc4n23)C1
59 | 156 to 158 °C | Cc1cc(C)c2c(c1OCC(=O)O)Cc1sc(SCCC(c3ccccc3)c3ccccc3)nc1-2
60 | 74 to 75 °C | Cc1nc(N2CCCC(C(O)c3ccccc3)C2=O)sc1C(=O)NCc1ccccc1 (stereo not drawn)
61 | 183 to 184 °C | O=C1C=CC(O)(c2cnc3ccccc3c2)C=C1
62 | 186 to 187 °C | O=c1cc(CCCl)c2ccccc2[nH]1
63 | 114 to 116 °C | C[C@@H](O)Cn1ccc2cc(F)c(F)cc21
64 | 165 to 167 °C | Cn1c(COc2ccc(CC3SC(=O)NC3=O)cc2)nc2ccc(Oc3cccc(NC(=O)Nc4ccccc4)c3)cc21 (stereo not drawn)
65 | 173 to 176 °C | Cn1cc(C(=O)CCl)cc1C(=O)c1ccc([N+](=O)[O-])cc1
66 | 129 to 131 °C | Cc1ccc(S(=O)(=O)n2ccc3cc(C#N)ccc32)cc1

Row | melting point | SMILES
67 | 176 to 177 °C | Cn1ncc(C(=O)Nc2ccc(F)cc2Cl)c1N
68 | > 250 °C | CN1C(=O)C2(COc3cc4c(cc32)OCCO4)c2c(O)cccc21 (stereo not drawn)
69 | 237 to 242 °C | COc1cc2cc3c(Nc4ccc(F)c(Cl)c4)c(C#N)cnc3cc2cc1OCCN1CCOCC1
70 | 140 °C | CC(NC(=O)C1CC(=O)c2cc(F)ccc2O1)c1ccccc1 (single isomer, unassigned; (+))
71 | 210 °C | CCN(CC)c1ccc(-n2c(CC(=O)O)c(C(=O)O)c3cc(Oc4ccc(Cl)cc4)ccc32)cc1
72 | 123 to 125 °C | Cc1ccc(S(=O)(=O)Nc2nc(-c3cc(F)cc(C(F)(F)F)c3)cs2)cc1
73 | 70 to 71 °C | CC(=O)c1ccc(OCCc2nc(-c3ccccc3)oc2C)cc1
74 | 295 to 305 °C | COc1ccc([C@H]2c3[nH]c4ccccc4c3C[C@H]3C(=O)NC(=O)N23)cc1 (relative stereo)
75 | 300 to 304 °C | O=C(O)c1ccc(-c2ccc(S(=O)(=O)N3CCCC(CO)C3)cc2)[nH]c1=O (stereo not drawn)
76 | 153 to 154 °C | COC(=O)c1ccc(N2C3CCC2CN(CC(=O)N2CC=C(c4cccc5ccsc45)CC2)C3)nc1
77 | 55 to 60 °C | COC(=O)c1ccc(C(F)(F)F)cc1Sc1ccccc1
78 | 192 to 194 °C | NC1C(=O)N(CC(O)C(F)(F)F)c2ccccc2-c2ccccc21 (stereo not drawn)
79 | 226 to 229 °C | COc1nc2c(O)cccc2n1C
80 | 82 to 82.5 °C | CCON=C(CC)C1=C(O)CC(c2ccc(Oc3ncc(C(F)(F)F)cc3F)cc2)CC1=O (stereo not drawn)
81 | 169 to 170 °C | CC[C@@H]1O[C@](C#Cc2ccoc2)(C(F)(F)F)c2cc(Cl)ccc2NC1=O (relative stereo)
82 | 178 to 179 °C | CCOC(=O)C(=O)Nc1ccc(Cl)ccc1=O
83 | 120 to 121 °C | CCOC(=O)c1cnc2c(OC)cccc2c1Nc1ccccc1
84 | 143 °C | CCOc1cc(=O)n(-c2ccc([N+](=O)[O-])cc2)[nH]1
85 | 155 to 157 °C | c1ccc(CCN2CCC(c3cc(-c4ccccn4)[nH]n3)CC2)cc1

Row | melting point | SMILES
86 | 124 °C | Cc1cc(C(N)=O)ccc1N
87 | 145 to 147 °C | Brc1ccc2c3c(cccc13)C(NCCCCn1ccnc1)=N2
88 | 86 °C | C=CCOC(=O)c1c(C)nc2c(cnn2CCCC#N)c1N
89 | 108 to 109 °C | O=[N+]([O-])c1cnccc1NCc1ccccc1F
90 | 215 °C | COc1ccc(C(=O)Nc2ccncc2)c2c1oc1ccccc12
91 | 164 to 168 °C | O=c1nc(N2CCN(c3ccccc3F)CC2)sc2c([N+](=O)[O-])cc(C(F)(F)F)cc12
92 | 176 °C | CCOC(=O)C1=C(N)NC(N)=C(C(=O)OCC)C1c1cccc(C#N)c1
93 | 219 °C | CS(=O)(=O)c1ccc(N2CC(O)(C(F)(F)F)N=C2c2ccncc2)cc1 (stereo not drawn)
94 | 181 to 183 °C | CC(=O)c1nc(-c2ccncc2)[nH]c1C
95 | 237 to 238 °C | Cc1nc(C(=O)c2[nH]c3ccc(Cl)cc3c2CC(=O)O)c[nH]1
96 | 118 to 119 °C | CC(=O)NC(Cc1ccc(Cl)c(Cl)c1)C(=O)OCc1cc(C)cc(C)c1 (stereo not drawn)
97 | 148 to 150 °C | O=C1Nc2ccccc2N(C(=O)N2CCCC(CCNCC3CCCC3)C2)c2ncccc21 (stereo not drawn)
98 | > 230 °C | COc1ccc2c(c1)CN(C(N)=O)N=C2Cc1c(Cl)cncc1Cl
99 | 151 to 153 °C | O=C(O)CCc1cccc2ccccc12
100 | 68 to 69 °C | COc1cccc(NC(=O)[C@H](CC(=O)OC(C)(C)C)NC(=O)OCc2ccccc2)c1
101 | 154 to 155 °C | Cn1cc(-c2ccccc2)c(=O)c(-c2ccc(Cl)c(C(F)(F)F)c2)c1
102 | 137 °C | COc1ccc(C(=O)OC2(c3nc4ccccc4s3)C=CC(=O)C=C2)cc1
103 | 188 to 190 °C | Cc1cc(=O)n(C)c2ccc(OCCCN3CCC(NC(=O)c4ccccc4)CC3)cc12
